Source: patent publication US12493040B2, “Cancer detection method using sense of smell of nematode” (HIROTSU BIO SCIENCE INC., priority 2013, dated 2025)

System: RNAi-treated eri-1 (mg366) nematodes
Test: RNAi screening of olfactory receptor genes: chemotaxis assay of RNAi-treated nematodes to odorants
Type: in vivo, Caenorhabditis elegans
Conditions: low concentration of attractant
Summary of the method: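 eri-1 (mg366) worms knocked down by feeding RNAi (Ahringer library) on IPTG/ampicillin NGM plates with E. coli for 4 days, then tested for chemotaxis, 30–50 worms per assay. Odorants at 1 μl of 10^−3 or 10^−4 dilution, or 1 and 5 μl undiluted. Hits scored by z score, thresholds ±1.96 (P<0.05) or ±0.96.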

chemotaxis index (Control nematodes): 0.49 ± 0.020 | chemotaxis index (srh-10 RNAi-treated nematodes): 0.68 | chemotaxis index (srh-11 RNAi-treated nematodes): 0.75 | chemotaxis index (srh-15 RNAi-treated nematodes): 0.44 | chemotaxis index (srh-16 RNAi-treated nematodes): 0.95 | chemotaxis index (srh-18 RNAi-treated nematodes): 0.96 | chemotaxis index (srh-19 RNAi-treated nematodes): 0.64 | chemotaxis index (srh-22 RNAi-treated nematodes): 0.42 | chemotaxis index (srh-23 RNAi-treated nematodes): 0.48 | chemotaxis index (srh-24 RNAi-treated nematodes): 0.59 | chemotaxis index (srh-25 RNAi-treated nematodes): 0.95 | chemotaxis index (srh-27 RNAi-treated nematodes): 0.27 | chemotaxis index (srh-28 RNAi-treated nematodes): 0.22 | chemotaxis index (srh-36 RNAi-treated nematodes): 0.26 | chemotaxis index (srh-37 RNAi-treated nematodes): 0.60 | chemotaxis index (srh-39 RNAi-treated nematodes): −0.24 | chemotaxis index (srh-40 RNAi-treated nematodes): 0.47 | chemotaxis index (srh-41 RNAi-treated nematodes): 0.57 | chemotaxis index (srh-44 RNAi-treated nematodes): 0.52 | chemotaxis index (srh-45 RNAi-treated nematodes): 0.26 | chemotaxis index (srh-46 RNAi-treated nematodes): 0.03 | chemotaxis index (srh-48 RNAi-treated nematodes): 0.38 | chemotaxis index (srh-49 RNAi-treated nematodes): 0.60 | chemotaxis index (srh-50 RNAi-treated nematodes): 0.53 | chemotaxis index (srh-51 RNAi-treated nematodes): 0.63 | chemotaxis index (srh-52 RNAi-treated nematodes): 0.51 | chemotaxis index (srh-55 RNAi-treated nematodes): 0.49 | chemotaxis index (srh-59 RNAi-treated nematodes): −0.14 | chemotaxis index (srh-60 RNAi-treated nematodes): 0.22 | chemotaxis index (srh-61 RNAi-treated nematodes): 0.40 | chemotaxis index (srh-67 RNAi-treated nematodes): 0.41 | chemotaxis index (srh-68 RNAi-treated nematodes): 0.21 | chemotaxis index (srh-69 RNAi-treated nematodes): 0.13 | chemotaxis index (srh-70 RNAi-treated nematodes): 0.25 | chemotaxis index (srh-71 RNAi-treated nematodes): 0.14 | chemotaxis index (srh-72 RNAi-treated nematodes): 0.29 | chemotaxis index (srh-74 RNAi-treated nematodes): 0.42 | chemotaxis index (srh-75 RNAi-treated nematodes): 0.53 | chemotaxis index (srh-77 RNAi-treated nematodes): 0.32 | chemotaxis index (srh-79 RNAi-treated nematodes): 0.53 | chemotaxis index (srh-80 RNAi-treated nematodes): 0.41 | chemotaxis index (srh-82 RNAi-treated nematodes): 0.49 | chemotaxis index (srh-83 RNAi-treated nematodes): 0.72 | chemotaxis index (srh-97 RNAi-treated nematodes): 0.74 | chemotaxis index (srh-99 RNAi-treated nematodes): 0.54 | chemotaxis index (srh-100 RNAi-treated nematodes): 0.35 | chemotaxis index (srh-104 RNAi-treated nematodes): −0.30 | chemotaxis index (srh-105 RNAi-treated nematodes): 0.27 | chemotaxis index (srh-109 RNAi-treated nematodes): 0.65 | chemotaxis index (srh-111 RNAi-treated nematodes): 0.39 | chemotaxis index (srh-113 RNAi-treated nematodes): 0.14 | chemotaxis index (srh-115 RNAi-treated nematodes): 0.39 | chemotaxis index (srh-116 RNAi-treated nematodes): 0.22 | chemotaxis index (srh-118 RNAi-treated nematodes): 0.44 | chemotaxis index (srh-119 RNAi-treated nematodes): 0.18 | chemotaxis index (srh-120 RNAi-treated nematodes): 0.80 | chemotaxis index (srh-122 RNAi-treated nematodes): 0.24 | chemotaxis index (srh-123 RNAi-treated nematodes): 0.30 | chemotaxis index (srh-125 RNAi-treated nematodes): 0.08 | chemotaxis index (srh-128 RNAi-treated nematodes): 0.49 | chemotaxis index (srh-129 RNAi-treated nematodes): 0.15 | chemotaxis index (srh-130 RNAi-treated nematodes): 0.36 | chemotaxis index (srh-214 RNAi-treated nematodes): 0.88 | chemotaxis index (srh-216 RNAi-treated nematodes): 0.65 | chemotaxis index (srh-217 RNAi-treated nematodes): 0.92 | chemotaxis index (srh-220 RNAi-treated nematodes): 0.67 | chemotaxis index (srh-222 RNAi-treated nematodes): 0.46 | chemotaxis index (srh-223 RNAi-treated nematodes): 0.23 | chemotaxis index (srh-227 RNAi-treated nematodes): 0.60 | chemotaxis index (srh-229 RNAi-treated nematodes): 0.12 | chemotaxis index (srh-233 RNAi-treated nematodes): 0.33 | chemotaxis index (srh-235 RNAi-treated nematodes): 0.51 | chemotaxis index (srh-236 RNAi-treated nematodes): 0.37 | chemotaxis index (srh-239 RNAi-treated nematodes): 0.49 | chemotaxis index (srh-241 RNAi-treated nematodes): 0.63 | chemotaxis index (srh-243 RNAi-treated nematodes): 0.00 | chemotaxis index (srh-244 RNAi-treated nematodes): 0.19 | chemotaxis index (srh-247 RNAi-treated nematodes): 0.38 | chemotaxis index (srh-250 RNAi-treated nematodes): 0.58 | chemotaxis index (srh-251 RNAi-treated nematodes): 0.32 | chemotaxis index (srh-252 RNAi-treated nematodes): 0.65 | chemotaxis index (srh-258 RNAi-treated nematodes): 0.35 | chemotaxis index (srh-261 RNAi-treated nematodes): 0.27 | chemotaxis index (srh-264 RNAi-treated nematodes): 0.46 | chemotaxis index (srh-266 RNAi-treated nematodes): 0.00 | chemotaxis index (srh-274 RNAi-treated nematodes): 0.82 | chemotaxis index (srh-275 RNAi-treated nematodes): 0.57 | chemotaxis index (srh-276 RNAi-treated nematodes): 0.45 | chemotaxis index (srh-277 RNAi-treated nematodes): 0.83 | chemotaxis index (srh-279 RNAi-treated nematodes): 0.55 | chemotaxis index (srh-281 RNAi-treated nematodes): 0.64 | chemotaxis index (srh-282 RNAi-treated nematodes): 0.73 | chemotaxis index (srh-283 RNAi-treated nematodes): 0.15 | chemotaxis index (srh-284 RNAi-treated nematodes): 0.36 | chemotaxis index (srh-291 RNAi-treated nematodes): 0.48 | chemotaxis index (srh-292 RNAi-treated nematodes): 0.52 | chemotaxis index (srh-293 RNAi-treated nematodes): 0.00 | chemotaxis index (srh-297 RNAi-treated nematodes): 0.32 | chemotaxis index (srh-298 RNAi-treated nematodes): 0.68 | chemotaxis index (srh-308 RNAi-treated nematodes): 0.39
SMILES: CCC(=O)C(C)=O [pentanedione]
